We go through eight compounds from patent US20230381157A1, “RIFABUTIN FOR THE TREATMENT OF ACINETOBACTER BAUMANNII” (University of Southern California, priority 2018, published 2023).

Data set [1] has as its system A. baumannii HUMC1. Put plainly: MIC, broth microdilution in MHII, RPMI or modified media. Type of data set: cell-based, Acinetobacter baumannii. The settings on record: inhibitor alone.
The next data set deals with A. baumannii ATCC 17978. Put plainly: IC50 dose response, inhibition of bacterial growth (BacTiter-Glo viability). The settings on record: 11-point dose response, read-out: IC50. In kind it is cell-based, Acinetobacter baumannii.
Data set [2] deals with A. baumannii HUMC1. Described as above. In kind it is cell-based, Acinetobacter baumannii. The settings on record: 11-point dose response, read-out: IC50.
For a further data set, the system named is HEK293T. The data set can be described thus: Specificity: mammalian cell cytotoxicity / inhibition of bacteria growth (CC50/IC50).
The mark [3] stands for this setting: IC50 vs A. baumannii ATCC 17978, RPMI + 50% serum.
Where [4] appears, read: IC50 vs A. baumannii ATCC 17978, RPMI alone.
Setting [5] is: IC50 vs A. baumannii HUMC1, RPMI + 50% serum.
Setting [6] is: IC50 vs A. baumannii HUMC1, RPMI alone.
[7] abbreviates: Acinetobacter baumannii, ATCC17978, ATCC 17978, RPMI + 50% Serum.
Setting [8] is: Acinetobacter baumannii, ATCC17978, ATCC 17978, RPMI.
The mark [9] stands for this setting: Acinetobacter baumannii, HUMC1, 24 h, HUMC1, RPMI + 50% Serum.
Where [10] appears, read: Acinetobacter baumannii, HUMC1, HUMC1, RPMI + 50% Serum.
Setting [11] is: Acinetobacter baumannii, HUMC1, HUMC1, RPMI.
The mark [12] stands for this setting: Acinetobacter baumannii, ATCC17978, 24 h, ATCC 17978, RPMI + 50% Serum.

Like-named read-outs stand apart in the source and are kept apart here.

As to `N#CC(C#N)=NNc1cccc(Cl)c1` [CCCP], in the data set on A. baumannii HUMC1 [1] (HUMC1), the “MIC of efflux pump inhibitor alone” value amounted to 8 µg/mL.
One may read the IC50 as the point on the concentration scale where inhibition reaches its midpoint. Take `CO[C@H]1/C=C/O[C@@]2(C)Oc3c(C)c(O)c4c(O)c(c(/C=N/N=C/N5CCCCC5)c(O)c4c3C2=O)NC(=O)/C(C)=C\C=C\[C@H](C)[C@H](O)[C@@H](C)[C@@H](O)[C@@H](C)[C@H](OC(C)=O)[C@@H]1C` [FCE-22250]: the IC50 in the data set with A. baumannii ATCC 17978 (ATCC 17978, RPMI + 50% Serum) turned out to be 35.3 µM; with A. baumannii ATCC 17978 (ATCC 17978, RPMI), 9.74 µM; in the data set on A. baumannii HUMC1 [2] (HUMC1, RPMI + 50% Serum), 21.7 µM; with A. baumannii HUMC1 [2] (HUMC1, RPMI), 9.03 µM. Besides, the “Specificity HEK293T (CC50/IC50)” value in the data set with HEK293T (setting [3]) is 0.950; with HEK293T (setting [4]), 3.441; with HEK293T (setting [5]) it was 1.545; in the data set on HEK293T (setting [6]), 3.710.
With `CO[C@H]1/C=C/O[C@@]2(C)Oc3c(C)c(O)c4c(=O)c(c5oc6cc(N7CCN(CC(C)C)CC7)cc(O)c6nc-5c4c3C2=O)NC(=O)/C(C)=C\C=C\[C@H](C)[C@H](O)[C@@H](C)[C@@H](O)[C@@H](C)[C@H](OC(C)=O)[C@@H]1C` [rifalazil], the IC50 was determined as 50 µM with A. baumannii ATCC 17978 (setting [7]); 17.4 µM in the data set on A. baumannii ATCC 17978 (setting [8]); 7.51 µM with A. baumannii HUMC1 [2] (setting [9]); 7.51 µM in the data set with A. baumannii HUMC1 [2] (setting [10]); 20 µM with A. baumannii HUMC1 [2] (setting [11]). For the same compound, the “Specificity HEK293T (CC50/IC50)” value with HEK293T (setting [3]) was 0.609; with HEK293T (setting [4]), 1.752; with HEK293T (setting [5]) it was 4.055; in the data set with HEK293T (setting [6]) it was 1.523.
Turning to `CO[C@H]1/C=C/O[C@@]2(C)Oc3c(C)c([O-])c4c(O)c(cc(O)c4c3C2=O)NC(=O)/C(C)=C\C=C\[C@H](C)[C@H](O)[C@@H](C)[C@@H](O)[C@@H](C)[C@H](OC(C)=O)[C@@H]1C.[Na+]` [rifamycin SV], the IC50 in the data set with A. baumannii ATCC 17978 (ATCC 17978, RPMI + 50% Serum) came to 50 µM; in the data set on A. baumannii ATCC 17978 (ATCC 17978, RPMI), 45.1 µM; in the data set on A. baumannii HUMC1 [2] (HUMC1, RPMI + 50% Serum) it was 50 µM; in the data set on A. baumannii HUMC1 [2] (HUMC1, RPMI), 37.1 µM. In addition, the “Specificity HEK293T (CC50/IC50)” value in the data set on HEK293T (setting [3]) worked out at 1.000; with HEK293T (setting [4]), 1.108; in the data set with HEK293T (setting [5]), 1.000; in the data set on HEK293T (setting [6]), 1.348.
With `CO[C@H]1/C=C/O[C@@]2(C)Oc3c(C)c(O)c4c(O)c(cc(O)c4c3C2=O)NC(=O)/C(C)=C\C=C\[C@H](C)[C@H](O)[C@@H](C)[C@@H](O)[C@@H](C)[C@H](OC(C)=O)[C@@H]1C` [rifamycin], the IC50 in the data set on A. baumannii ATCC 17978 (setting [12]) was 33 µM; in the data set on A. baumannii ATCC 17978 (setting [7]) it was 33 µM; in the data set on A. baumannii ATCC 17978 (setting [8]), 28.4 µM; in the data set on A. baumannii HUMC1 [2] (setting [9]), 35.4 µM; in the data set on A. baumannii HUMC1 [2] (setting [10]), 35.4 µM; with A. baumannii HUMC1 [2] (setting [11]), 20.8 µM. The “Specificity HEK293T (CC50/IC50)” value in the data set with HEK293T (setting [3]) is 0.412; in the data set on HEK293T (setting [4]), 0.478; with HEK293T (setting [5]), 0.383; in the data set on HEK293T (setting [6]), 0.654.
Turning to `CO[C@H]1/C=C/O[C@@]2(C)Oc3c(C)c(O)c4c(O)c(c(/C=N/N5CCN(C6CCCC6)CC5)c(O)c4c3C2=O)NC(=O)/C(C)=C\C=C\[C@H](C)[C@H](O)[C@@H](C)[C@@H](O)[C@@H](C)[C@H](OC(C)=O)[C@@H]1C` [rifapentine], the IC50 in the data set with A. baumannii ATCC 17978 (setting [12]) is 28.1 µM; in the data set on A. baumannii ATCC 17978 (setting [7]) it was 28.1 µM; in the data set on A. baumannii ATCC 17978 (setting [8]) it was 7.59 µM; in the data set with A. baumannii HUMC1 [2] (setting [9]), 10.9 µM; in the data set with A. baumannii HUMC1 [2] (setting [10]), 10.9 µM; in the data set with A. baumannii HUMC1 [2] (setting [11]), 10 µM. The “Specificity HEK293T (CC50/IC50)” value in the data set on HEK293T (setting [3]) is 1.222; with HEK293T (setting [4]), 4.517; with HEK293T (setting [5]), 3.148; in the data set on HEK293T (setting [6]), 3.413.
Turning to `CO[C@H]1/C=C/O[C@@]2(C)Oc3c(C)c(O)c4c(O)c(c5c(nc6cc(C)ccn65)c4c3C2=O)NC(=O)/C(C)=C\C=C\[C@H](C)[C@H](O)[C@@H](C)[C@@H](O)[C@@H](C)[C@H](OC(C)=O)[C@@H]1C` [rifaximin], the IC50 with A. baumannii ATCC 17978 (setting [12]) was determined as 2.45 µM; in the data set on A. baumannii ATCC 17978 (setting [7]) it was 2.45 µM; in the data set on A. baumannii ATCC 17978 (setting [8]) it was 1.78 µM; with A. baumannii HUMC1 [2] (setting [9]), 1.59 µM; with A. baumannii HUMC1 [2] (setting [10]), 1.59 µM; in the data set with A. baumannii HUMC1 [2] (setting [11]), 1.53 µM. The “Specificity HEK293T (CC50/IC50)” value with HEK293T (setting [3]) is recorded as 20.421; with HEK293T (setting [4]), 28.143; in the data set on HEK293T (setting [5]), 31.517; in the data set with HEK293T (setting [6]), 32.776.
A word on the MIC: it is the smallest concentration in the dilution series that meets the test's criterion for growth inhibition. On to `CSc1ccc2c(c1)N(CCC1CCCCN1C)c1ccccc1S2` (stereo not drawn) [thioridazine], for which, in the data set with A. baumannii HUMC1 [1] (Acinetobacter baumannii, HUMC1, HUMC1, read-out: MIC of efflux pump inhibitor alone), the MIC was 64 µg/mL.
